Here are results for 2 molecules from patent publication US9949369B2, “Cyanate ester compound, curable resin composition containing the same, and hardened product thereof” (MITSUBISHI GAS CHEMICAL COMPANY, INC., priority 2013, dated 2018).

This series can be described thus: Solubility of the cyanate ester monomer in methyl ethyl ketone (MEK). The settings on record: 25° C. Type of series: physicochemical.

In the case of `CC12CC3(C)CC(c4ccc(OC#N)cc4)(C1)CC(c1ccc(OC#N)cc1)(C2)C3` [AMTCN, 1,3-Bis(4-Cyanatophenyl)-5,7-Dimethyladamantane], the “amount that could be dissolved in methyl ethyl ketone (MEK)” value was at least 50 % by mass.
On to `Cc1cc(C23CC4(C)CC(C)(C2)CC(c2ccc(OC#N)c(C)c2)(C4)C3)ccc1OC#N` [AMTcCN, 1,3-Bis(3-Methyl-4-Cyanatophenyl)-5,7-Dimethyladamantane], for which the “amount that could be dissolved in methyl ethyl ketone (MEK)” value was at least 50 % by mass.
